From article PMC11927696, “Synthetic mycolates derivatives to decipher protein mycoloylation, a unique post-translational modification in bacteria” (The Journal of Biological Chemistry, 2025)
Blank lines part the entries; values can stand above or below the compound they belong to.

Columns and labels:
MytC (MytChis) [1] = target: T1, MytC (MytChis) (Corynebacterium glutamicum, UniProt Q8NTG4); assay: X-ray crystallography, […] Å; format: binding
T1 construct: gene Cgl0343; residues 30-363 seen in crystal
T1 sequence (Q8NTG4 entry or part of it): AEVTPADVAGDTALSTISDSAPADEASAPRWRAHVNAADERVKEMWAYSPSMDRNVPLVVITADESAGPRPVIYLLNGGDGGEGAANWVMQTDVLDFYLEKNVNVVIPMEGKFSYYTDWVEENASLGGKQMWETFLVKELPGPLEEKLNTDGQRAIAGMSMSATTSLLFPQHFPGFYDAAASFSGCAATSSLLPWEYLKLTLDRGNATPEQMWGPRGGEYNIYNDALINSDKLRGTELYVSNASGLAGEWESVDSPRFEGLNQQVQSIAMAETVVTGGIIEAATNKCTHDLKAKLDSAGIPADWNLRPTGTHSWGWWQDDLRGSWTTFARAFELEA

MytC (MytChis) [2] = target: T1, MytC (MytChis); assay: PorA mycoloylation, MALDI-TOF MS; format: biochemical; settings: PorA acceptor; in combination with TDM/TMM mix, pH 8.0, 37 °C, 3 h
MytA (MytAhis) [3] = target: T2, MytA (MytAhis) (Corynebacterium glutamicum, UniProt P0C1D6); assay: trehalose acylation (trehalose dipalmitate formation), MALDI-TOF MS; format: biochemical; settings: 1 mM, acts as donor and acceptor, 5 μM MytA, pH 8.0, 37 °C, 3 h
T2 construct: gene csp1
T2 sequence (P0C1D6 44-657): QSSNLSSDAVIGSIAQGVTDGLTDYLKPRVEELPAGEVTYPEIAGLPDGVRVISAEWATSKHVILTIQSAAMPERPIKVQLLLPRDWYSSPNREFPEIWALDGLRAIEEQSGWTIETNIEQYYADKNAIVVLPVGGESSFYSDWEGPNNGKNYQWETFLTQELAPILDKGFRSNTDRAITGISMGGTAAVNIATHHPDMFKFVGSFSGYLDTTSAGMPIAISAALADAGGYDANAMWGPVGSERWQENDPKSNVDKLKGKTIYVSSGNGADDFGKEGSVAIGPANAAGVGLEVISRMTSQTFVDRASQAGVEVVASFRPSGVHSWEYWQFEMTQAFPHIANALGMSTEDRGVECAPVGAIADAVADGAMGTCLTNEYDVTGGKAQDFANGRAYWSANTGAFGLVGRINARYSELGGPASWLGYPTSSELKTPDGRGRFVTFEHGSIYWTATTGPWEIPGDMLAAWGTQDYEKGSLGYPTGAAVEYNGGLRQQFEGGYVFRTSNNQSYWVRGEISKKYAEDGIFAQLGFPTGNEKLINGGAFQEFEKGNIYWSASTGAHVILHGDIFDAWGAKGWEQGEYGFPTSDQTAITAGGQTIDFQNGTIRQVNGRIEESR

MytA (MytAhis) [4] = target: T2, MytA (MytAhis); assay: trehalose mycoloylation (TDM formation), TLC and MALDI-TOF MS; format: biochemical; settings: 1 mM, acts as donor and acceptor, 5 μM MytA, pH 8.0, 37 °C, 3 h

Structure (SMILES): CCCCC[C@@H](O)[C@@H](CCCCC)C(=O)OC[C@H]1O[C@H](O[C@H]2O[C@H](CO)[C@@H](O)[C@H](O)[C@H]2O)[C@H](O)[C@@H](O)[C@@H]1O [compound 2, TMM-C13:0]
X-ray crystallography, 2.69 Å (MytC (MytChis) [1]; covalent, mycoloyl ester on catalytic S189, co-crystallised, pH 7.1): S189 Oγ atom forms an ester bond with the carbonyl of the analog

Structure (SMILES): CCCCCCCCCCCCCCC[C@@H](O)CC(=O)OC[C@H]1O[C@H](O[C@H]2O[C@H](CO)[C@@H](O)[C@H](O)[C@H]2O)[C@H](O)[C@@H](O)[C@@H]1O [compound 4, analog 4]
PorA mycoloylation, MALDI-TOF MS (MytC (MytChis) [2]): is perfectly used as a substrate to acylate PorA

Structure (SMILES): CCCCCCCCCCCCCCCC(=O)OC[C@H]1O[C@H](O[C@H]2O[C@H](CO)[C@@H](O)[C@H](O)[C@H]2O)[C@H](O)[C@@H](O)[C@@H]1O [compound 6, TMP]
trehalose acylation (trehalose dipalmitate formation), MALDI-TOF MS (MytA (MytAhis) [3]): both compounds are efficient substrates of MytA

trehalose mycoloylation (TDM formation), TLC and MALDI-TOF MS (MytA (MytAhis) [4]): a small amount of TDM is detected on TLC
Structure (SMILES): CCCCCCCCCCCCCCC[C@@H](O)[C@@H](CCCCCCCCCCCCCC)C(=O)OC[C@H]1O[C@H](O[C@H]2O[C@H](CO)[C@@H](O)[C@H](O)[C@H]2O)[C@H](O)[C@@H](O)[C@@H]1O [synthetic TMM-C32:0]

Structure (SMILES): OC[C@H]1O[C@H](O[C@H]2O[C@H](CO)[C@@H](O)[C@H](O)[C@H]2O)[C@H](O)[C@@H](O)[C@@H]1O [trehalose]
X-ray crystallography, 2.69 Å (MytC (MytChis) [1]; second site, protein surface near active site groove, contacts E225 and D232 of helix α8, crystal with TMM-C13:0): A trehalose moiety was identified on the surface of MytC
